Experimental findings from US11426441B2, “Composition comprising protein phosphatase 1 inhibitory peptide for treating vascular diseases” (BethphaGen Inc., priority 2016, dated 2022) are described below.

No end group written: not given here.

For assay [1], the system named is balloon-injured rat carotid arteries. Description: Balloon-induced injury of rat carotid artery. It is filed as in vivo. The source says:
The left common carotid artery was injured by an infiltration of 2F Fogarty balloon embolectomy catheter. In brief, the rats were anesthetized with isoflurane gas (70% N2O/30% O2), the left external carotid artery was exposed, and branches thereof were electro-coagulated. A catheter was inserted approximately 1 cm into the external carotid artery via a transverse arteriotomy, and endothelial denudation was achieved by three passes of the catheter along the common carotid artery. After removal of the catheter, the penetrated area was clamped, and 5 μg of the peptides solubilized in 200 μL of phosphate-buffered saline (PBS) was injected. After incubation for 15 minutes, the sealed carotid artery was re-opened to resume blood flow. The rats were allowed to recover for 10 days, unless otherwise stated. For histological analyses, the rats were anesthetized, and the common carotid artery was excised after transcardiac perfusion with heparinized saline containing 3.7% (w/v) formaldehyde. The specimens were embedded in paraffin, and paraffin blocks were sectioned with the Leica RM2255 rotary microtome. Two serial tissue sections (thickness, 4 μm) were obtained from the centre of the common carotid artery and stained with haematoxylin and eosin. The lamina, internal elastic lamina, and external elastic lamina were measured with the National Institutes of Health ImageJ software (version 1.62). The intimal and medial areas were determined by subtracting the laminal area from the internal elastic laminal area and by subtracting the internal elastic laminal area from the external elastic laminal area, respectively. The values from two serial sections per rat were averaged for analysis.
The carotid artery was fixed in 4% (w/v) paraformaldehyde for 48 hours at room temperature and then washed with PBS. After embedding the specimens in paraffin and sectioning the tissue blocks, the sections were treated with hydrogen peroxide to quench endogenous peroxidase activity, followed by boiling in antigen retrieval buffer. […]

The next assay relates to RASMCs. Nature of the assay: In vitro cell scratch assay (RASMC migration). To be noted: 3 μM peptide. It is filed as cell-based, rat. Here is the method:
RASMCs isolated from the thoracic aorta were cultured in DMEM supplemented with 0.1% (v/v) FBS (Contractile) or in DMEM supplemented with 10% (v/v) FBS (Synthetic) in the presence of 3 μM of control peptide (Con; SEQ ID NO: 23) or ψPLB-SE peptide (SEQ ID NO: 2). Alternatively, RASMC cultured in DMEM supplemented with 0.1% (v/v) FBS were treated with 10 ng/ml of PDGF-BB (R&D Systems) (Synthetic) in the presence of 3 μM control or ψPLB-SE peptide. A region of the RASMC layer was removed by scratching the plate with a sterile 200 μL pipette tip. The cells were incubated for 12 hours or 24 hours and then observed under an 1×80 microscope (Olympus). The distance traveled by the cells was measured using MetaMorph software.

For the next assay, the system named is SERCA2a. Nature of the assay: SERCA2a level and stability in RASMCs (immunostaining, western blotting). It is filed as cell-based, rat. To be noted: synthetic conditions, 3 μM peptide. The protocol:
Rat aortic smooth muscle cells (RASMCs) were fixed in 4% (w/v) paraformaldehyde at room temperature for 10 min, washed with PBS, and then transmitted with 0.1% (v/v) Triton X-100 in PBS for 40 min. After washing and blocking with 3% (w/v) BSA in PBS, the cells were incubated overnight at room temperature with antibodies against SERCA2a (1:250), SERCA2b (1:250), and PCNA (1:50). On the following day, the cells were washed with PBS and incubated with anti-rabbit and anti-mouse IgG conjugated to Alexa Fluor 488 and 594, respectively, for 1 hour at room temperature. The cells were treated with FluoroGuard antifade reagent (Bio-Rad, Hercules, Calif., USA), and the coverslips were examined under a fluorescent microscope.
(§1) Vascular smooth muscle cells (VSMCs) were homogenized in a minimal volume of 50 mM Tris-HCl, pH 7.4, supplemented with a broad-spectrum protease inhibitor cocktail (Calbiochem). The proteins were separated by SDS-PAGE and then transferred to polyvinylidene fluoride membranes (Schleicher & Schuell). After blocking with 5% (w/v) non-fat milk for 1 hour and washing with TBST, the membranes were incubated with antibodies against SERCA2a, SERCA2b (21st century biochemical), PCNA (abcam), GAPDH (Sigma-Aldrich), phospho-eNOS, eNOS, phospho-eIF2α, eIF2α (cell signaling), Vimentin, α-SMA, BMPR2 (Santa cruz), phospho-Akt, Akt (cell signaling), phospho-phospholamban (Merck), and Phospholamban (cell signaling). The membranes were then incubated with horseradish peroxidase-conjugated secondary antibodies (Jackson ImmunoResearch, West Grove, Pa., USA) and developed using a chemiluminescent substrate (Dogen). The blots were scanned and quantified using LAS software.
RASMCs were cultured in DMEM supplemented with 0.1% (v/v) FBS (Contractile) or in DMEM supplemented with 10% (v/v) FBS (Synthetic) in the presence of 3 μM control or ψPLB-SE peptide. Cycloheximide (Sigma) was added to media to a final concentration of 5 μg/ml. Cells were harvested after 0, 3, and 5 days of incubation and their protein extracts were subjected to western blotting.
(In general: Immunoblotting shows a protein as a band on a membrane.)

A further assay has as its system phospholamban. Description: PLB phosphorylation in PASMCs (western blotting). To be noted: synthetic phenotype, 3 μM. It is filed as cell-based.
In the next assay the test system is PLB. Nature of the assay: PLB phosphorylation in RASMCs (western blotting). It is filed as cell-based, rat. The protocol:
FIG. 7. ψPLB-SE attenuates PLB dephosphorylation in VSMCs. The proteins samples shown in FIG. 2C were subjected to western blotting. Antibodies against PLB or phospho-PLB were used. Data are expressed as the means±SD (n=3-4; *, P<0.05).
as §1

Method for phospholamban: PASMCs were incubated in DMEM supplemented with 0.1% (v/v) FBS for 3 days to induce a contractile phenotype, followed by incubation in DMEM supplemented with 10% (v/v) FBS for 3 days to induce a synthetic phenotype in the presence of 3 μM ψPLB-SE. (18a) Protein expression was quantitatively analyzed through western blotting using antibodies against phospho-PLB (ser16), total PLB, and GAPDH. Data are expressed as the means±SD (n=3˜4; *, P<0.05 vs contractile; #, P<0.05 vs Synthetic-con).
Human coronary smooth muscle cells (HCSMCs), pulmonary arterial endothelial cells (PAECs), and pulmonary arterial smooth muscle cells (PASMCs) were purchased from Lonza and cultured in EBM or SmBM (Lonza) supplemented with 0.5 mg/mL hEGF, 5 mg/mL insulin, 1 mg/mL hFGF, 50 mg/mL gentamicin/amphotericin-B, and 5% fetal bovine serum. All the cells were cultured at 37 in 5% (v/v) CO2 and 95% (v/v) air. RASMCs and HCSMCs were, respectively, plated at the densities of 1×10^4 cells/cm^2 and 1×10^5 cells/cm^2 for immunostaining and western blotting experiments.
Vascular smooth muscle cells (VSMCs) were homogenized in a minimal volume of 50 mM Tris-HCl, pH 7.4, supplemented with a broad-spectrum protease inhibitor cocktail (Calbiochem). […] The blots were scanned and quantified using LAS software.

For “RAETIEMPQ (not fully specified) [ψPLB-SE, 9-mer PP1 decoy peptide mimicking phosphorylated PLB; conjugated via GGG linker to cell penetrating peptide dNP2 or TAT]”, the “in vivo VSMC proliferation (α-SMA, PCNA immunostaining)” value in assay [1] (balloon-injured rat carotid artery, peptide administered to the injured site) is “inhibits”. The “neointimal formation (haematoxylin and eosin staining)” value in assay [1] (balloon-injured rat carotid artery, peptide administered to the injured site, compared with control peptide) is on record as “inhibited”. Further, in assay [1] (carotid artery sections), the “reduction of SERCA2a level by balloon angioplasty-mediated injury (immunostaining)” value is “inhibited”. The “increased migratory activity of RASMCs” value in the assay with RASMCs (synthetic conditions (10% FBS)) and in the assay on RASMCs (treatment with PDGF-BB 10 ng/ml) was “inhibited” in each case. In addition, in the assay on SERCA2a, the “SERCA2a reduction (immunostaining)” value was “completely inhibited”. Moreover, the “reduction of SERCA2a (western blotting)” value in the assay with SERCA2a is “inhibited”. In addition, the “stability of SERCA2a” value with SERCA2a (cycloheximide 5 μg/ml) is given as “restored nearly to the level observed under contractile conditions”. For the same sequence, the “phosphorylation of the serine 16 residue of phospholamban” value in the assay on phospholamban is “restored”. Moreover, the “dephosphorylation of PLB” value in the assay on PLB was “inhibited”.
